# Data taken from patent US8372580B2, “BRCA1 function-based cellular assays” (Morehouse School of Medicine, priority 2008, dated 2013).
# What was measured:
# [1] = test system: ERα transcriptional activity in T47D breast cancer cells; assay: Cell based assay #2: ERE-luciferase reporter, E2-induced ERα activation by Ubc9 C93S; settings: Ubc9 C93S (SUMO-independent), E2 1 μM
# Method: T47D cells (5×10^5) were plated in 6-well plates for 24 hours. The cells were washed twice in PBS followed by the addition of phenol red free DMEM containing 5% charcoal-stripped FBS for 48 hrs before transfection. The cells were transfected with 1 μg of each of the indicated plasmids (with a total of 2.5 μg DNA) using lipofectamine 2000 (Life Technology, USA). The cells were induced with 1 μM of E2 4 hours after transfections, harvested after an additional 40 hrs and assayed for luciferase activity following the manufacturer's instructions. Each set of experiments was performed in triplicate and repeated a least three times.
# Ubc9 = target: T1, Ubc9 (Homo sapiens, UniProt P63279); assay: GST capture (pull-down) assay of binding to Ubc9; settings: in vitro translated full length protein
# T1 construct: made in house; host or cells: E. coli
# Excerpt: GST-Ubc9 and GST-ERα (337-379) were expressed and purified from E. coli as described previously (Wang H, Shao N, Ding O M, Cui J, Reddy E S P, Rao V N: BRCA1 proteins are transported to the nucleus in the absence of serum and splice variants BRCA1a, BRCA1b are tyrosine phosphoprotein that associate with E2F, cyclins and cyclin dependent kinases. Oncogene 15, 143-157: 1997.). For in vitro protein binding assay 35 S-Methionine-labeled in vitro translated full length BRCA1, BRCA1a (Chai Y L, Cui J, Chipitsyna G, Liao B, Lui S, Aysola K et al.: C-Fos oncogene regulator Elk-1 interacts with BRCA1 splice variants BRCA 1a/1b and enhances BRCA1a/1b mediated growth suppression in breast cancer cells. Oncogene 20: 1357-1367, 2001.), BRCA1b, BRCA1 Mut#1, BRCA1 Mut#4, BRCA1 1-182, BRCA1 1-182 Mut#1 and BRCA1 1-182 Mut 4 proteins were diluted in binding buffer (20 mM Tris-HCl (pH7.5), 150 mM NaCl, 0.1% Tween 20). The proteins were precleared with GSH beads for 30 min and then incubated with GST or various GST-ER (337-379) proteins beads for 2 hours at 4° C. The beads were then washed three times with binding buffer followed by elution of the bound proteins with SDS sample buffer and loaded on a 15% SDS-PAGE. The gels were fixed, treated with enhance, dried and exposed 9 to X-ray films) and scanned using a Fuji BioImaging analyzer. […]
# T1 sequence (P63279 whole entry, species assumed): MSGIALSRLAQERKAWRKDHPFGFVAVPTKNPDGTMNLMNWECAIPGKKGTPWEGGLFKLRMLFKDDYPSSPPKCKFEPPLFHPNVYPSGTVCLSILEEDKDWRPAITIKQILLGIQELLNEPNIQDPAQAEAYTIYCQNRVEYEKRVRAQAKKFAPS
Substance,inhibition of E2-mediated ERα transcription activation by Ubc9/C93S [1],binding to Ubc9 (Ubc9)
BRCA1 Mutant #1: BRCA1 point mutant 1; apparently SUMO acceptor site mutation lysine (K) 109 to arginine (R),"unlike their respective Mut #1 and Mut#4, inhibit",–
BRCA1 Mutant #4: full length BRCA1 with RING domain cancer-predisposing mutation C61G,"unlike their respective Mut #1 and Mut#4, inhibit",did not observe any significant binding
BRCA1: full-length product of the BRCA1 (breast cancer 1) tumor suppressor gene,inhibit E2-mediated ERα transcription activation by Ubc9/C93S,–
